Source: patent publication US9216220B2, “Compositions and methods for thermo-sensitive nanoparticles and magnetic nanoparticles” (BOARD OF REGENTS, THE UNIVERSITY OF TEXAS SYSTEM, priority 2008, dated 2015)

System: Prostate cancer cells (i.e., JHU31)
Assay: Cancer cell viability, MTS assay, DOX-loaded nanoparticles
Assay type: cell-based
Conditions: 37° C., 24 hours; nanoparticles 500 μg/ml
Protocol: In order to investigate the pharmacological activity of the in vitro released DOX from the functionalized copolymer magnetic nanoparticles, cancer cell viability was conducted using MTS assays (Promega) according to the manufacturer's instruction. Prostate cancer cells (i.e., JHU31) were cultured to confluence, harvested by trypsinization, and dispersed in RPMI supplemented with 10% serum and 1% penicillin-streptomycin. Cells were seeded at a density of approximately 10,000 cells/well in 24-well plates for 24 hours at 37° C., and then were then incubated with nanoparticles, DOX-loaded nanoparticles, and free DOX. The concentration of functionalized copolymer magnetic nanoparticles and DOX-loaded functionalized copolymer magnetic nanoparticles was 500 μg/ml. This nanoparticle concentration was selected according to drug release results from the nanoparticles indicated above and the optimal inhibition dose of DOX on prostate cancer cell growth studies. The prostate cancer cells were incubated with each group at 37° C., 41° C., and temperature cycles between 37° C. and 41° C. (one hour at each temperature for one cycle) for 24 hours.

`COc1cccc2c1C(=O)c1c(O)c3c(c(O)c1C2=O)C[C@@](O)(C(=O)CO)C[C@@H]3O[C@H]1C[C@H](N)[C@H](O)[C@H](C)O1` [DOX, doxorubicin] was tested, and the “cell viability in comparison to the control” value was 20%.
